Assays:
[1] = system: SARS CoV-2 D614G Spike pseudovirus; assay type: cell-based
SARS-CoV-2 spike HPM7 = SARS-CoV-2 spike HPM7 (Severe acute respiratory syndrome coronavirus 2, UniProt P0DTC2, A892P/A899P/A942P/F817P/K986P/R682G/R683S/R685S/T883C/V705C/V987P)

| SMILES | IC50 [1] [nM] | Particles in closed conformation (3 RBD down) (SARS-CoV-2 spike HPM7) [%] | Particles in open conformation (1 RBD up) (SARS-CoV-2 spike HPM7) [%] |
| --- | --- | --- | --- |
| CN1CCN(C[C@@H](O)COc2cc(Br)cc(OC[C@H](O)CN3CCN(C)CC3)c2)CC1 [Compound 30] | 1310 | – | – |
| O[C@@H](COc1cccc(OC[C@H](O)CN2CCCCC2)c1)CN1CCCCC1 [(R,R)-VE607, reference compound] | 660 | – | – |
| CN(C)C[C@@H](O)COc1cc(Br)cc(OC[C@H](O)CN(C)C)c1 [Compound 27] | 780 | 16.9 | 68.0 |
| CCN(C)C[C@@H](O)COc1cc(Br)cc(OC[C@H](O)CN(C)CC)c1 [Compound 33] | 1150 | – | – |

Source: PMC12645998, “Optimization of VE607 to generate analogs with improved neutralization activities against SARS-CoV-2 variants” (Journal of Virology, 2025)
